# Data taken from the supplement of paper PMC10307832.
# Assays:
# Experiment in all cases: relative viability (nuclei count vs DMSO), 5 days (fraction); higher = more cells survive
# VX-702 + Trametinib = compound: NC(=O)c1ccc(N(C(N)=O)c2c(F)cccc2F)nc1-c1ccc(F)cc1F [VX-702] + CC(=O)Nc1cccc(-n2c(=O)n(C3CC3)c(=O)c3c(Nc4ccc(I)cc4F)n(C)c(=O)c(C)c32)c1 [Trametinib] (partner 0.02 µM)
# Method in brief: (§1)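 Medians of duplicate plates are given as relative viability. That measure is the nuclei count in treated wells divided by the count in vehicle wells. Counts were taken on 4× images of lung cancer cell lines in 1536-well plates, 5 days after pin-tool dosing the day after seeding with one drug alone or a fixed anchor-drug dose plus five library-drug doses (not always all listed) in √10 steps.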
# Dabrafenib + Bortezomib = compound: CC(C)(C)c1nc(-c2cccc(NS(=O)(=O)c3c(F)cccc3F)c2F)c(-c2ccnc(N)n2)s1 [Dabrafenib] + CC(C)C[C@H](NC(=O)[C@H](Cc1ccccc1)NC(=O)c1cnccn1)B(O)O [Bortezomib] (partner 0.002 µM)
# Method in brief: as §1
# Dabrafenib + Dasatinib = compound: CC(C)(C)c1nc(-c2cccc(NS(=O)(=O)c3c(F)cccc3F)c2F)c(-c2ccnc(N)n2)s1 [Dabrafenib] + Cc1nc(Nc2ncc(C(=O)Nc3c(C)cccc3Cl)s2)cc(N2CCN(CCO)CC2)n1 [Dasatinib] (partner 0.075 µM)
# Method in brief: as §1
# VX-702 + Foretinib = compound: NC(=O)c1ccc(N(C(N)=O)c2c(F)cccc2F)nc1-c1ccc(F)cc1F [VX-702] + COc1cc2c(Oc3ccc(NC(=O)C4(C(=O)Nc5ccc(F)cc5)CC4)cc3F)ccnc2cc1OCCCN1CCOCC1 [Foretinib] (partner 0.25 µM)
# Method in brief: as §1
Cell Line,relative viability (VX-702 + Trametinib; first compound 0.02 µM),relative viability (VX-702 + Trametinib; first compound 0.2 µM),relative viability (VX-702 + Trametinib; first compound 0.6325 µM),relative viability (VX-702 + Trametinib; first compound 2 µM),relative viability (Dabrafenib + Bortezomib; first compound 0.003 µM),relative viability (Dabrafenib + Bortezomib; first compound 0.009487 µM),relative viability (Dabrafenib + Bortezomib; first compound 0.03 µM),relative viability (Dabrafenib + Bortezomib; first compound 0.09487 µM),relative viability (Dabrafenib + Bortezomib; first compound 0.3 µM),relative viability (Dabrafenib + Dasatinib; first compound 0.003 µM),relative viability (Dabrafenib + Dasatinib; first compound 0.009487 µM),relative viability (Dabrafenib + Dasatinib; first compound 0.03 µM),relative viability (Dabrafenib + Dasatinib; first compound 0.09487 µM),relative viability (Dabrafenib + Dasatinib; first compound 0.3 µM),relative viability (VX-702 + Foretinib; first compound 0.02 µM),relative viability (VX-702 + Foretinib; first compound 0.2 µM),relative viability (VX-702 + Foretinib; first compound 0.6325 µM),relative viability (VX-702 + Foretinib; first compound 2 µM)
NCI-H2023,0.497,0.458,0.458,0.558,0.78,1.09,1.04,0.977,1.02,0.559,0.589,0.586,0.516,0.673,0.761,0.722,0.724,1
HARA,0.818,–,0.776,0.63,1.17,1.16,1,1.06,1.27,0.242,0.346,–,0.294,0.264,0.852,0.763,0.908,0.814
SK-LU-1,0.497,0.472,0.486,0.651,–,1.12,–,0.607,0.871,–,0.185,0.193,0.173,0.188,0.917,0.786,0.777,1.01
LCLC-97TM1,0.197,0.192,0.185,0.202,–,0.643,0.782,0.162,0.469,0.574,0.847,0.843,0.36,0.534,0.836,0.923,0.938,0.991
